Measured values taken from patent US20200348288A1, “A method and a system for analysis of cardiomyocyte function” (IMEC VZW, priority 2017, published 2020).

Tested on: cardiomyocytes
Experiment: analysis of cardiomyocyte function (microelectrode array recording with simultaneous reflective lensfree imaging) before and after administering of a drug
Type: cell-based
Conditions: after vs before administering of drug, FIG. 5
From the text: During or in-between measurements, a drug may be administered 210 to the cardiomyocytes in order to allow predicting of adverse effects on electrical and/or contractile function of the cardiomyocytes.
After drug treatment, analysis 212 on the cardiomyocytes is again performed. The electrical and/or contractile representations before and after drug treatment may be compared in order to predict adverse effects.
The method further comprises recording 304 electrical signals from the cardiomyocytes. The electrical signals may be acquired by the microelectrode array 112, which may be arranged in contact with the cardiomyocytes on the substrate 110. The electrical signals may further be transferred to readout circuitry 120 recording electrical signals received from the microelectrode array 112.
The method further comprises simultaneously with the recording 304, acquiring 306 a sequence of images. Each image may be acquired by detecting light wavefront information in reflective lensfree imaging and reconstructing the image of the cardiomyocytes based on the detected light wavefront information.
The method further comprises determining 308 an electrical representation relating to an intracellular and/or extracellular action potential, and/or an impedimetric electrical image of a cardiomyocyte based on the recorded electrical signals. […]

electrical function of the cardiomyocytes (electrical representation): not affected
Compound: Cc1ccc2c(c1)C(=O)C1(O)CCN(c3ccccc3)C1=N2 (centres unmarked) [blebbistatin]
contractile function of the cardiomyocytes (contractile representation): severe adverse effects
